Test results as given in patent US20200325177A1, “METHODS OF MAKING STREPTOGRAMIN COMPOSITIONS AND THE USE THEREOF” (THE REGENTS OF THE UNIVERSITY OF CALIFORNIA, priority 2017, published 2020).
In brackets after ≈: the same amount, converted by molar mass. Read-outs that look alike come from different tables or passages of the source.

How the values were obtained:
E. faecalis = assay: MIC, Gram-positive bacteria: E. faecalis; format: cell-based; conditions: Enterococcus faecalis, column 1, read-out: Minimal Inhibitory Concentration (MIC) E. faecalis
E. faecium ATCC 35667 = assay: MIC, Gram-positive bacteria: E. faecium ATCC 35667; format: cell-based; conditions: Enterococcus faecium, ATCC35667, column 2, read-out: Minimal Inhibitory Concentration (MIC) E. faecium ATCC 35667
E. faecium VRE; vanA = assay: MIC, Gram-positive bacteria: E. faecium VRE; vanA; format: cell-based; conditions: Enterococcus faecium, column 3, read-out: Minimal Inhibitory Concentration (MIC) E. faecium VRE
S. aureus = assay: MIC, Gram-positive bacteria: S. aureus (strains not named); format: cell-based; conditions: Staphylococcus aureus, read-out: Minimal Inhibitory Concentration (MIC) S. aureus
[1] = system: S. aureus Vat A streptogramin; assay: MIC, Gram-positive bacteria: S. aureus Vat A streptogramin; format: cell-based; conditions: Staphylococcus aureus; Gram-positive; column 5; read-out: Minimal Inhibitory Concentration (MIC) S. aureus Vat A streptogramin
[2] = system: S. aureus Linezolid-resistant; cfr; assay: MIC, Gram-positive bacteria: S. aureus Linezolid-resistant; cfr; format: cell-based; conditions: Staphylococcus aureus, column 9, read-out: Minimal Inhibitory Concentration (MIC) S. aureus Linezolid-resistant
S. pneumoniae = assay: MIC, Gram-positive bacteria: S. pneumoniae; format: cell-based; conditions: Streptococcus pneumoniae, column 10, read-out: Minimal Inhibitory Concentration (MIC) S. pneumoniae
[3] = system: K. pneumoniae multidrug-resistant; assay: MIC, Gram-negative bacteria: K. pneumoniae multidrug-resistant; format: cell-based; conditions: Klebsiella pneumoniae, read-out: Minimal Inhibitory Concentration (MIC) K. pneumoniae multidrug-resistant
P. aeruginosa ATCC 27853 = assay: MIC, Gram-negative bacteria: P. aeruginosa ATCC 27853; format: cell-based; conditions: Pseudomonas aeruginosa, ATCC27853, read-out: Minimal Inhibitory Concentration (MIC) P. aeruginosa ATCC 27853
[4] = system: P. aeruginosa MDR clinical isolate; assay: MIC, Gram-negative bacteria: P. aeruginosa MDR clinical isolate; format: cell-based; conditions: Pseudomonas aeruginosa, read-out: Minimal Inhibitory Concentration (MIC) P. aeruginosa MDR clinical isolate
H. influenzae ATCC 49247 = assay: MIC, Gram-negative bacteria: H. influenzae ATCC 49247; format: cell-based; conditions: Haemophilus influenzae, ATCC49247, read-out: Minimal Inhibitory Concentration (MIC) H. influenzae ATCC 49247
Gram-Negative Organisms = assay: microbe, parasite or virus in culture; format: cell-based
[5] = system: large subunit of the E. coli ribosome; assay: cryo-EM structure bound to ribosome; format: binding; conditions: 2.8 Angstrom resolution cryo-EM; isoquinoline sidechain reaches into the P-site
Description: FIGS. 7A-7B. […] FIG. 7B depicts the structure of SAO110224.

`CC1=C\[C@@H](O)CC(=O)Cc2nc(co2)C(=O)N2CCC[C@@H]2C(=O)O[C@H]([C@H](C)COC(=O)Nc2cc3ccccc3cn2)[C@H](C)/C=C/C(=O)NC\C=C\1` [SA0110224] gave an MIC (E. faecalis) greater than 64 µg/mL, an MIC (E. faecium ATCC 35667) of 4 µg/mL (≈ 5.6 µM) and an MIC (E. faecium VRE; vanA) of 8 µg/mL (≈ 11.2 µM). It also gave an MIC (S. aureus; first unnamed S. aureus column (c4)) of 4 µg/mL (≈ 5.6 µM), an MIC (S. aureus; fourth unnamed S. aureus column (c8)) of 4 µg/mL (≈ 5.6 µM) and an MIC (S. aureus; second unnamed S. aureus column (c6)) of 4 µg/mL (≈ 5.6 µM). It also gave an MIC (S. aureus; third unnamed S. aureus column (c7)) of 8 µg/mL (≈ 11.2 µM), an MIC [1] of 16 µg/mL (≈ 22.4 µM) and an MIC [2] greater than 64 µg/mL. The MIC (S. pneumoniae) was 16 µg/mL (≈ 22.4 µM), the MIC [3] was greater than 64 µg/mL and the MIC (P. aeruginosa ATCC 27853) was greater than 64 µg/mL. It also gave an MIC [4] greater than 64 µg/mL, an MIC (H. influenzae ATCC 49247) of 2 µg/mL (≈ 2.8 µM) and an MIC (Gram-Negative Organisms; Acinetobacter baumannii, ATCC19606, read-out: Minimal Inhibitory Concentration (MIC), A. baumannii ATCC 19606) greater than 64 µg/mL. For the same molecule, the MIC (Gram-Negative Organisms; Escherichia coli, ATCC25922, read-out: Minimal Inhibitory Concentration (MIC), E. coli ATCC 25922) was greater than 64 µg/mL, the MIC (Gram-Negative Organisms; Escherichia coli, read-out: Minimal Inhibitory Concentration (MIC), E. coli BAS2006, OMP C, OMP F) was 8 µg/mL (≈ 11.2 µM) and the MIC (Gram-Negative Organisms; Escherichia coli, read-out: Minimal Inhibitory Concentration (MIC), E. coli olC efflux defective) was 1 µg/mL (≈ 1.4 µM). For the same molecule, the MIC (Gram-Negative Organisms; Escherichia coli, read-out: Minimal Inhibitory Concentration (MIC), E. coli permeability mutant BAS1314, IMP4213ZAB::TN10) was 1 µg/mL (≈ 1.4 µM), the MIC (Gram-Negative Organisms; Escherichia coli, read-out: Minimal Inhibitory Concentration (MIC), E. coli ΔompC768, KanR insert) was greater than 64 µg/mL and the MIC (Gram-Negative Organisms; Klebsiella pneumoniae, ATCC43816, read-out: Minimal Inhibitory Concentration (MIC), K. pneumoniae ATCC 43816) was greater than 64 µg/mL. For the same molecule, the “binding to ribosome seen in cryo-EM structure” value [5] was “bound to large subunit of the E. coli ribosome”.
